Biological target: GTPase NRas [G12D,C118S] (Homo sapiens, UniProt P01111, C118S/G12D)
Test: NRas G12D Surface Plasmon Resonance (SPR) Binding Assay
Description: The assay was run at 25° C. with a data collection rate of 10 Hz. All samples were flowed over both a reference surface and an active surface. Samples were injected for 30 s, with a dissociation time length of 120 s, at a flow rate of 100 μL/min and followed by an extra wash with 50% DMSO and a carry-over control injected at 40 μL/min for 30 s. Ten startup cycles were performed at the beginning of the assay. Solvent correction samples were injected once in the middle of the assay, and once at the end. A control sample of 10 μM control compound was injected between two negative control injections (1.0× running buffer containing 3% DMSO) every thirty cycles, to periodically assess NRAS surface stability. Assay was allowed to run for approximately 20-24 hours due to loss of activity of the protein surface over time. Data was analyzed using the Biacore™ S200 Evaluation Software, and all data was fit using a 1:1 kinetic binding model or steady-state fitting, as appropriate.

Sequence of GTPase NRas [G12D,C118S] (P01111 whole entry G12D/C118S, looked up): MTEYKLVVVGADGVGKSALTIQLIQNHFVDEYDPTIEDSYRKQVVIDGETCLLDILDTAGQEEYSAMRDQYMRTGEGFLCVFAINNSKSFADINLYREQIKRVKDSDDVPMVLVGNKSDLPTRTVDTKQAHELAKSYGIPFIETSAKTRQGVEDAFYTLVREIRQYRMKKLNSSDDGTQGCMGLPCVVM

Kd: 0.119 µM
Structure (SMILES): C#Cc1c(F)ccc2cc(O)cc(-c3nc(C(C)=O)c4c([C@H]5[C@@H]6CNC[C@@H]65)nn(C5CC5)c4c3F)c12 [US20260022118, Example 84]
